Source: paper PMC10326435, “Antiprotozoal activity of natural products from Nigerien plants used in folk medicine” (Frontiers in Pharmacology, 2023)
Several values for one entry are separate records, joined by “and”; a condition that tells them apart may be missing. Identical values can stand only once. Like-named read-outs stand apart in the source and are kept apart here.

How the values were obtained:
[1] = tested on: P. falciparum (NF54, intraerythrocytic); assay: in vitro activity on P. falciparum, serial dilution assay; assay type: cell-based, Plasmodium falciparum; conditions: for IC50: Plasmodium falciparum, read-out: IC50 P. falciparum; for Selectivity index (SI) P. falciparum: SI = IC50 cytotoxicity (L6)/IC50 in P. falciparum
Experimental: (§1) The in vitro activity was assessed on T. b. rhodesiense (STIB900, trypomastigotes), T. cruzi (Tulahuen C2C4, intracellular amastigotes), L. donovani (MHOM-ET-67/L82, axenically grown amastigotes), P. falciparum (NF54, intraerythrocytic), and L6 cells (ATCC, CRL-1458™, rat skeletal myoblasts) as previously described ([Bernal et al., 2020]). The activities were determined in serial dilution assays with 72 h compound exposure, respectively 96 h for intracellular T. cruzi. Results are expressed in µg/mL for extracts and in µM for pure compounds. The IC50 values were determined for the compounds only when they were <50 µM.

[2] = tested on: T. b. rhodesiense (STIB900, trypomastigotes); assay: in vitro activity on T. b. rhodesiense, serial dilution assay; assay type: cell-based, Trypanosoma brucei rhodesiense; conditions: for Selectivity index (SI) T. b. rhodesiense: SI = IC50 cytotoxicity (L6)/IC50 in T. b. rhodesiense; for IC50: Trypanosoma brucei
Experimental: as §1

[3] = tested on: T. cruzi (Tulahuen C2C4, intracellular amastigotes); assay: in vitro activity on T. cruzi, serial dilution assay; assay type: cell-based, Trypanosoma cruzi; conditions: for Selectivity index (SI) T. cruzi: SI = IC50 cytotoxicity (L6)/IC50 in T. cruzi; for IC50: Trypanosoma cruzi, TULAHUEN
Experimental: as §1

[4] = tested on: L. donovani (MHOM-ET-67/L82, axenically grown amastigotes); assay: in vitro activity on L. donovani, serial dilution assay; assay type: cell-based, Leishmania donovani; conditions: for IC50: Leishmania donovani; for Selectivity index (SI) L. donovani: SI = IC50 cytotoxicity (L6)/IC50 in L. donovani
Experimental: as §1

cytotoxicity in L6 cells = assay type: cell-based, rat
Experimental: as §1

P. falciparum = conditions: previously evaluated; ref Kopa et al., 2014; read-out: antiplasmodial activity IC50; cited from earlier work
[5] = 72 h, 72 h exposure, means of two independent assays ± deviation from the mean, read-out: IC50 T. b. rhodesiense
[6] = 96 h, 96 h exposure, means of two independent assays ± deviation from the mean, read-out: IC50 T. cruzi
[7] = 72 h, axenic amastigotes, 72 h exposure, means of two independent assays ± deviation from the mean, read-out: IC50 L. donovani
[8] = NF54, 72 h, 72 h exposure, means of two independent assays ± deviation from the mean
[9] = rat, L6 cells (rat skeletal myoblasts, ATCC CRL-1458), rat skeletal myoblast (L6 cells), 72 h exposure, means of two independent assays ± deviation from the mean, read-out: IC50 Cytotoxicity
[10] = 72 h exposure, means of two independent assays ± deviation from the mean, read-out: IC50 T. b. rhodesiense
[11] = 72 h, read-out: IC50 L. donovani
[12] = rat skeletal myoblast (L6 cells), 72 h exposure, means of two independent assays ± deviation from the mean, read-out: IC50 Cytotoxicity
[13] = inactive, read-out: IC50 T. b. rhodesiense (inactive)
[14] = inactive, read-out: IC50 T. cruzi (inactive)
[15] = inactive, read-out: IC50 L. donovani (inactive)

Structure (SMILES)	Selectivity index (SI) T. b. rhodesiense [2]	IC50 [2, 5] [µM]	IC50 [3, 6] [µM]	IC50 [4, 7] [µM]	Selectivity index (SI) L. donovani [4]	IC50 [1, 8] [µM]	Selectivity index (SI) P. falciparum [1]	IC50 at 72 h (cytotoxicity in L6 cells; [9]) [µM]	other results
CCN(CC)CCCC(C)Nc1ccnc2cc(Cl)ccc12 (centres unmarked) [Chloroquine, reference compound]	–	–	–	–	–	–	–	–	IC50 ([1]; NF54, 72 h): 0.003 µg/mL and 9 nM
CC(C)=CCC1=C(O)C(=O)c2c(O)ccc(O)c2C1=O [Compound 20]	2.0	6.9 ± 1.3	27.4 ± 1.3	1.9 ± 0.4	7.4	45 ± 4.6	0.3	14 ± 0.4	Selectivity index (SI) T. cruzi [3]: 0.5; IC50 (P. falciparum): 3 µM
CN[C@@H](Cc1ccccc1)C(=O)N[C@@H]1C(=O)N[C@@H](CC(C)C)C(=O)N/C=C\c2ccc(cc2)O[C@H]1C(C)C [Compound 7, sanjoinine B]	–	> 50	> 50	> 50	–	23.1 ± 9	> 6.0	> 50	–
Nc1nc(N)nc(Nc2ccc([As]3SCC(CO)S3)cc2)n1 (centres unmarked) [Melarsoprol, reference compound]	–	–	–	–	–	–	–	–	IC50 ([2]; 72 h, read-out: IC50 T. b. rhodesiense): 0.005 µg/mL and 16 nM
COc1ccc2cc1/C=C\NC(=O)[C@H](Cc1ccccc1)NC(=O)[C@@H]1[C@H](CCN1C(=O)[C@@H](NC(=O)C(C)N(C)C)C(C)C)O2 (stereo in doubt) [Compound 10, amphibine H]	> 2.5	30.4 ± 4.6	> 50	> 50	–	15.1 ± 0.5	> 5.3	–	IC50 at 72 h (cytotoxicity in L6 cells; rat, IC50 Cytotoxicity): > 50 µM
O=C(Cn1ccnc1[N+](=O)[O-])NCc1ccccc1 [Benznidazole, reference compound]	–	–	2.3 ± 0.2	–	–	–	–	–	IC50 ([3]; 96 h, Table 2, 96 h exposure, means of two independent experiments, read-out: IC50 T. cruzi): 0.667 µg/mL
COC1=CC(=O)C=C(OC)C1=O [Compound 23]	–	–	–	–	–	–	–	–	IC50 [2, 10]: 9.3 ± 3.1 µM; IC50 ([3]; 96 h, read-out: IC50 T. cruzi): > 50 µM; IC50 [4, 11]: 15.1 ± 1 µM; IC50 ([1]; NF54, 72 h): 36.9 ± 15.4 µM; IC50 at 72 h (cytotoxicity in L6 cells; [12]): > 50 µM
CC(C)=CCCc1ccc2c(c1)C(=O)c1ccccc1C2=O [Compound 27]	–	–	–	–	–	–	–	–	IC50 [2, 13]: > 50 µM; IC50 [3, 14]: > 50 µM; IC50 [4, 15]: > 50 µM; IC50 ([1]; NF54, abstract and b45 text): > 50 µM
COc1cc([C@@H]2c3cc4c(cc3[C@H](O)[C@H]3COC(=O)[C@H]23)OCO4)cc(OC)c1OC [Podophyllotoxin, reference compound]	–	–	–	–	–	–	–	–	IC50 at 72 h (cytotoxicity in L6 cells; Table 2, rat skeletal myoblast (L6 cells), 72 h exposure, read-out: IC50 Cytotoxicity): 0.008 µg/mL
CC(C)[C@H](NC(=O)[C@H](C)N(C)C)C(=O)N1CC[C@@H]2Oc3ccc(cc3)/C=C\NC(=O)[C@H](Cc3ccccc3)NC(=O)[C@H]21 [Compound 5, mauritine A]	–	–	–	–	–	–	–	–	IC50 [2, 13]: > 50 µM; IC50 [3, 14]: > 50 µM; IC50 [4, 15]: > 50 µM; IC50 ([1]; NF54, abstract and b45 text): > 50 µM
C=C(C)C12CCC3(CCC4(C)C(CCC5C6(C)C(C(=O)O)C(O)C(C)(C)C6CCC54C)C31)C(=O)O2 (centres unmarked) [Compound 13]	–	> 50	> 50	11.6 ± 2.4	> 9.3	29.1 ± 4.1	> 3.7	–	IC50 at 72 h (cytotoxicity in L6 cells; rat, IC50 Cytotoxicity): > 50 µM
CC(C)C[C@@H]1NC(=O)[C@@H](NC(=O)[C@H](Cc2c[nH]c3ccccc23)N(C)C)[C@H](C(C)C)Oc2ccc(cc2)/C=C\NC1=O [Compound 9, nummularine K]	2.7	12.7 ± 3.8	43.6 ± 7.1	> 50	–	20.7 ± 5.8	1.6	33.6 ± 4.9	Selectivity index (SI) T. cruzi [3]: 0.8
COc1cc([C@@H]2OC[C@@H]3[C@H]2CO[C@H]3c2cc(OC)c(O)c(OC)c2)cc(OC)c1O [Compound 30]	0.6	20.2 ± 1.8	29.2 ± 11.4	13.4 ± 2.3	1.0	22.6 ± 2	0.6	–	Selectivity index (SI) T. cruzi [3]: 0.4; IC50 at 72 h (cytotoxicity in L6 cells; rat, IC50 Cytotoxicity): 13 ± 1.7 µM
CC(C)=CC[C@@]12O[C@@H]1C(O)c1c(O)ccc(O)c1C2=O (some centres unmarked) [Compound 25]	7.6	2.5 ± 0.1	> 50	12.7 ± 5.3	1.5	14 ± 1.9	1.4	19 ± 2.3	–
CC(C)=CCCc1ccc2c(c1O)C(=O)c1ccccc1C2=O [Compound 28]	–	–	–	–	–	–	–	–	IC50 [2, 13]: > 50 µM; IC50 [3, 14]: > 50 µM; IC50 [4, 15]: > 50 µM; IC50 ([1]; NF54, abstract and b45 text): > 50 µM
CCC(C)[C@@H]1NC(=O)[C@@H](NC(=O)[C@H](Cc2ccccc2)N(C)C)[C@H](C(C)C)Oc2ccc(cc2)/C=C\NC1=O (some centres unmarked) [Compound 8, lotusanine A]	–	> 50	> 50	> 50	–	> 50	–	> 50	–
CC(C)=CC[C@@]12O[C@@H]1C(=O)c1c(O)ccc(O[C@@H]3O[C@H](CO)[C@@H](O)[C@H](O)[C@H]3O)c1C2=O [Compound 26]	1.2	9.9 ± 4.5	39.2 ± 5	3.5 ± 0.5	3.5	9 ± 5.4	1.4	12.2 ± 1.8	Selectivity index (SI) T. cruzi [3]: 0.3
CCCCCCCCCCCCCCCC(=O)OCC(O)COP(=O)([O-])OCC[N+](C)(C)C (centres unmarked) [Compound 3, 1-palmitoyl-lysolecithin]	–	> 20	–	> 20	–	> 10	–	–	IC50 ([3]; 96 h, read-out: IC50 T. cruzi): 12.1 ± 2.4 µM; IC50 at 72 h (cytotoxicity in L6 cells; rat, IC50 Cytotoxicity): > 20 µM
C=C(C)[C@@H]1CC[C@]2(C(=O)O)CC[C@]3(C)[C@H](CC[C@@H]4[C@@]5(C)[C@H](C=O)[C@@H](O)C(C)(C)[C@@H]5CC[C@]43C)[C@@H]12 [Compound 14, colubrinic acid]	–	–	–	–	> 45	–	> 5.5	–	IC50 [2, 10]: > 50 µM; IC50 ([3]; 96 h, read-out: IC50 T. cruzi): > 50 µM; IC50 [4, 11]: 1.9 ± 0.4 µM; IC50 ([1]; NF54, 72 h): 15.3 ± 4.1 µM; IC50 at 72 h (cytotoxicity in L6 cells; [12]): > 50 µM
C=C(C)[C@@H]1CC[C@]2(C(=O)O)CC[C@]3(C)[C@H](CC[C@@H]4[C@@]5(C)C[C@@H](O)[C@H](OC(=O)/C=C/c6ccc(O)cc6)C(C)(C)[C@@H]5CC[C@]43C)[C@@H]12 [Compound 18, 3-O-trans-p-coumaroylalphitolic acid]	0.6	25.9 ± 2.6	19.5 ± 0.6	3 ± 0.2	5.3	0.2 ± 0.04	79.0	–	Selectivity index (SI) T. cruzi [3]: 0.8; IC50 at 72 h (cytotoxicity in L6 cells; rat, IC50 Cytotoxicity): 15.8 ± 6.4 µM
CCCCCCCCCCCCCCCCOP(=O)([O-])OCC[N+](C)(C)C [Miltefosine, reference compound]	–	–	–	0.52 ± 0.07	–	–	–	–	IC50 ([4]; 72 h, Table 2, 72 h exposure, means of two (C. sieberiana three) independent experiments, read-out: IC50 L. donovani): 0.282 µg/mL
C=C(C)[C@@H]1CC[C@]2(C(=O)O)CC[C@]3(C(=O)O)[C@H](CC[C@@H]4[C@@]5(C)C=CC(C)(C)[C@@H]5CC[C@]43C)[C@@H]12 [Compound 17, ceanothenic acid]	–	–	–	–	> 40	–	> 8.0	–	IC50 [2, 10]: > 50 µM; IC50 ([3]; 96 h, read-out: IC50 T. cruzi): > 50 µM; IC50 [4, 11]: 2.6 ± 0.2 µM; IC50 ([1]; NF54, 72 h): 13.9 ± 4 µM; IC50 at 72 h (cytotoxicity in L6 cells; [12]): > 50 µM
C=C(C)[C@H](O)CC1=C(O)C(=O)c2c(O)ccc(O)c2C1=O [Compound 22]	0.8	36 ± 9.4	> 50	7.9 ± 0.9	3.8	> 50	–	30.4 ± 10.6	–
CC(C)=CCC1=C(Cl)C(=O)c2c(O)ccc(O)c2C1=O [Compound 21]	15.8	0.5 ± 0.3	21.5 ± 0.2	3 ± 0.4	2.6	9.2 ± 2.1	0.9	7.9 ± 1.3	Selectivity index (SI) T. cruzi [3]: 0.4
